16 molecules from US11591325B2, “2-polysubstituted aromatic ring-pyrimidine derivatives, preparation and medical application thereof” (ZHEJIANG UNIVERSITY, priority 2016, dated 2023) can be followed below.

Read-outs that look alike come from different tables or passages of the source. Where only a bound is given, the exact number is not on record here.

By IC50 is commonly meant the concentration needed to halve the response being measured.

The target in one experiment is T1, Chk1 protein kinase (Homo sapiens, UniProt O14757).
T1 sequence (O14757 1-476): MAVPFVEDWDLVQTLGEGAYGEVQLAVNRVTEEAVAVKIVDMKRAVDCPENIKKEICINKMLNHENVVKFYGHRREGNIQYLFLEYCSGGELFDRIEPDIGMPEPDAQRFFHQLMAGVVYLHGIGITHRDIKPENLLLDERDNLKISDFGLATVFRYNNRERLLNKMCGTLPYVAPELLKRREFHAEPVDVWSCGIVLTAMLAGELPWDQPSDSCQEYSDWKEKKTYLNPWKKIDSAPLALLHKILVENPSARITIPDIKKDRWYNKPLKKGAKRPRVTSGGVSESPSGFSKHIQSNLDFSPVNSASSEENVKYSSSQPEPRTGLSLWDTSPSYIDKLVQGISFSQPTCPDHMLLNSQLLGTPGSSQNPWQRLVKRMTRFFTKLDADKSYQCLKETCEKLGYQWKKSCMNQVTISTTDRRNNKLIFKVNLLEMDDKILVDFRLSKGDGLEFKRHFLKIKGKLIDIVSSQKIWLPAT
Description: Chk1 enzyme inhibitory activity, ADP-Glo kit. In kind it is biochemical. How it is done: With the Saurosporine as a positive control, the Chk1 enzyme inhibitory activity (IC50) was evaluated using the ADP-Glo kit. […] The phosphorylation process consumes ATP. After the reaction, ADP-Glo™ Reagent consumes the remaining ATP. The ADP produced during the reaction can be transformed by ADP-Glo Detection Reagent. For ATP, ATP acts as a substrate for the Ultra-Glo™ luciferase catalytic reaction, producing an optical signal. The test compound was dissolved in DMSO to make a 10 mM stock solution and diluted to 12 different concentrations in a certain ratio for testing. […] Incubate for 1 h, stop the reaction by adding 5 μL of ADP-Glo™ Reagent, and incubate for 1 h at 37° C. 10 μL of ADP-Glo Detection Reagent was added, incubated at 37° C. for 30 min, and three parallel wells were set for each sample. […] was measured by luminescence fluorescence microplate reader, and data were calculated using GraphPad Prism 5 software to calculate IC50 values.
A general note: ADP-Glo turns the ADP formed in a reaction into a luminescent signal.

For experiment [1], the system named is human ovarian cancer cell OVCAR-8. As to the kind of experiment: MTS in vitro proliferation assay, OVCAR-8. It is filed as cell-based. The note with it: 72 hours, average of three experiments.
Description: (§1) The cells in the logarithmic growth phase were trypsinized, counted, and seeded at a density of 1×10^4 cells/well in a 96-well plate at 100 μL per well in a 37° C. incubator containing 5% CO2 overnight. For the culture, six concentration gradients were set for each compound, and three sets of duplicate wells were set for each concentration. After the addition, the cells were cultured for 72 hours, and 20 μL of MTS was added. After incubating for 2 hours at 37° C., the absorbance at 490 nm (L1) was measured with a SpectraMAX 340 microplate reader.
In experiment [2] the test system is human gastric cancer cell BGC-823. Description: MTS in vitro proliferation assay, BGC-823. In kind it is cell-based. The note with it: 72 hours, average of three experiments.
Description: as §1
The subject of experiment [3] is human mantle cell lymphoma cells Mino. As to the kind of experiment: MTS in vitro proliferation assay, Mino. In kind it is cell-based. The note with it: 72 hours.
Description: as §1
Experiment [4] has as its system human mantle cell lymphoma cells Jeko-1. As to the kind of experiment: MTS in vitro proliferation assay, Jeko-1. Conditions: 72 hours. It is filed as cell-based.
Description: as §1
In experiment [5] the test system is human lymphoma cells Romas. As to the kind of experiment: MTS in vitro proliferation assay, Romas. It is filed as cell-based. Conditions: 72 hours.
Description: as §1
Experiment [6] deals with human multiple myeloma cells RPMI 8226. Description: MTS in vitro proliferation assay, RPMI 8226. In kind it is cell-based. The note with it: 72 hours, read-out: IC50(μM) RPMI8226.
Description: as §1
Experiment [7] relates to human colon cancer cell HCT116. As to the kind of experiment: MTS in vitro proliferation assay, HCT116. It is filed as cell-based. The note with it: HCT-116, 72 hours, average of three experiments.
Description: as §1
Experiment [8] has as its system human colon cancer cell Colo205. As to the kind of experiment: MTS in vitro proliferation assay, Colo205. In kind it is cell-based. The note with it: COLO 205, 72 hours, average of three experiments.
Description: as §1
Experiment [9] concerns human prostate cancer cell LnCAP. Description: MTS in vitro proliferation assay, LnCAP. Conditions: 72 hours, average of three experiments. In kind it is cell-based.
Description: as §1
Experiment [10] relates to human breast cancer cells MCF-7. Description: cells. The note with it: MCF7, 72 h, read-out: IC50(μM) MCF-7.
Description: as §1
In experiment [11] the test system is Human lung cancer cell A549. As to the kind of experiment: MTS in vitro proliferation assay, A549. It is filed as cell-based. Conditions: 72 hours, average of three experiments.
Description: as §1
For experiment [12], the system named is human acute monocytic leukemia cells MV-4-11. As to the kind of experiment: MTS in vitro proliferation assay, MV-4-11. It is filed as cell-based. Conditions: MV4-11, 72 hours.
Description: as §1
The mark [13] stands for this setting: Table 2 >10 μM or <1 μM, read-out: Chk1 IC50, bound with unit.
Setting [14] is: Table 2 left column pair, numeric cells, read-out: Chk1 (IC50).

On to `CNc1nc(Nc2cc(OC3CCNCC3)ns2)ncc1-c1cnn(C)c1` [Compound 4, N^4-Methyl-5-(1-methyl-1H-pyrazol-4-yl)-N^2-(2-(piperidin-4-yloxy)isothiazol-5-yl)-2,4-diaminopyrimidine], for which the IC50 at Chk1 protein kinase (setting [13]) is over 10000 nM.
Regarding `CNc1nc(Nc2cn(C)c(OC3CCNCC3)n2)ncc1-c1cnn(C)c1` [Compound 3, N^4-Methyl-5-(1-methyl-1H-pyrazol-4-yl)-N^2-(1-methyl-2-(piperidin-4-yloxy)imidazol-4-yl)-2,4-diaminopyrimidine], the half-maximal inhibitory concentration (IC50) at Chk1 protein kinase (setting [13]) was over 10000 nM.
With `N#Cc1ncc(Nc2ncc(C(F)(F)F)cn2)cc1OC1CCCNC1` (stereo not shown) [Compound 45, 5-trifluoromethyl-N-(2-cyano-3-(piperidin-3-oxy)pyridin-5-yl)-2-aminopyrimidine], on Chk1 protein kinase (setting [13]), the IC50 is under 1000 nM.
Still for that read-out and setting: then `CNc1nc(Nc2cnc(OC3CCNCC3)s2)ncc1-c1cnn(C)c1` [Compound 6, N^4-Methyl-5-(1-methyl-1H-pyrazol-4-yl)-N^2-(2-(piperidin-4-yloxy)thiazol-5-yl)-2,4-diaminopyrimidine], with over 10000 nM.
In the case of `COc1nc(Nc2cnc(C#N)c(OCC3CCNCC3)c2)ncc1C(F)(F)F` [Compound 46, 4-methoxy-5-trifluoromethyl-N-(2-cyano-3-(piperidin-4-methyl)oxypyridin-5-yl)-2-aminopyrimidine], the IC50 on Chk1 protein kinase (setting [13]) is under 1000 nM.
With `CNc1nc(Nc2cnc(C#N)c(O[C@@H]3CCCNC3)c2)ncc1-c1cnn(C)c1` [Compound 35, (R)-N^4-methyl-5-(1-methyl-1H-pyrazol-4-yl)-N^2-(2-cyano-3-(piperidin-3-yloxy)pyridin-5-yl)-2,4-diaminopyrimidine], the IC50 turned out to be 0.789 µM in experiment [1]; 4.81 µM in experiment [2]; 0.647 µM in experiment [3]; 0.339 µM in experiment [4]; 0.356 µM in experiment [5]; 1.27 µM in experiment [6]. In addition, the IC50 in experiment [7] stood at 0.98 µM; in experiment [8], 0.663 µM; in [9], 2.17 µM; in experiment [10], 1.01 µM; in [11], 2.16 µM; in [12], 0.053 µM.
Regarding `COc1nc(Nc2cnc(C#N)c(OCC3CCNCC3)c2)ncc1-c1cccc(F)c1` [Compound 17, 4-methoxy-5-(3-fluorophenyl)-N-(2-cyano-3-(piperidin-4-methyl)oxypyridin-5-yl)-2-aminopyrimidine], the IC50 in [1] is 0.22 µM; in experiment [2], over 10 µM; in experiment [3], 0.495 µM; in experiment [4] it was 0.117 µM; in [5], 0.348 µM; in experiment [6] it was 3.29 µM. Besides, the concentration for half-maximal inhibition (IC50) in experiment [7] was 1.9 µM; in [8], 0.878 µM; in experiment [9] it was over 10 µM; in [11], 4.24 µM; in experiment [12] it was 0.05 µM; at Chk1 protein kinase (setting [14]) it was 8.8 nM.
Take `CNc1nc(Nc2cnc(C#N)c(O[C@@H]3CCCNC3)c2)ncc1C(F)(F)F` [Compound 47, (R)—N^4-methyl-5-trifluoromethyl-N^2-(2-cyano-3-(piperidin-3-oxy)pyridin-5-yl)-2,4-diaminopyrimidine]: the IC50 on Chk1 protein kinase (setting [13]) was under 1000 nM.
Regarding `CNc1nc(Nc2cnc(C#N)c(OC3CCCNC3)c2)ncc1-c1cnn(C)c1` (stereo not shown) [Compound 32, N^4-Methyl-5-(1-methyl-1H-pyrazol-4-yl)-N^2-(2-cyano-3-(piperidin-3-yloxy)pyridin-5-yl)-2,4-diaminopyrimidine], the IC50 in [2] amounted to 7.64 µM; in experiment [3], 0.859 µM; in experiment [4], 0.189 µM; in experiment [5], 0.789 µM; in experiment [6], 8.18 µM; in [7] it was 4.18 µM. For the same molecule, the IC50 in experiment [9] was found to be 6 µM; in experiment [11] it was 5.17 µM; in [12] it was 0.064 µM.
On to `COc1nc(Nc2cnc(C#N)c(OCC3CCNCC3)c2)ncc1-c1cnn(C)c1` [Compound 18, 4-methoxy-5-(1-methyl-1H-pyrazol-4-yl)-N-(2-cyano-3-(piperidin-4-methyl)oxypyridin-5-yl)-2-aminopyrimidine], for which the concentration for half-maximal inhibition (IC50) was determined as 2.14 µM in experiment [1]; 7.11 µM in experiment [2]; 1.77 µM in experiment [7]; 1.01 µM in experiment [8]; 7 µM in experiment [9]; 3.17 µM in [11]. The figures for the IC50 (in experiment [12]; on Chk1 protein kinase (setting [14])) were 0.036 µM and 1.8 nM, respectively.
Take `CNc1nc(Nc2cnc(C#N)c(O[C@H]3CCCNC3)c2)ncc1-c1cnn(C)c1` [Compound 36, (S)-N^4-methyl-5-(1-methyl-1H-pyrazol-4-yl)-N^2-(2-cyano-3-(piperidin-3-yloxy)pyridin-5-yl)-2,4-diaminopyrimidine]: the IC50 in experiment [1] came to 4.18 µM; in experiment [3] it was 0.956 µM; in experiment [4], 0.548 µM; in experiment [5], 0.649 µM; in experiment [6] it was 2.49 µM; in experiment [7], 2.55 µM. The IC50 was determined as 2.18 µM in experiment [8], 4.89 µM in [9], 5.74 µM in experiment [11] and 0.072 µM in experiment [12].
With `CNc1nc(Nc2cnc(C#N)c(O[C@H](C)CN(C)C)c2)ncc1-c1cnn(C)c1` [Compound 41, (R)-N^4-methyl-5-(1-methyl-1H-pyrazol-4-yl)-N^2-(2-cyano-3-(1-dimethylaminopropyl-2-oxy)pyridin-5-yl)-2,4-diaminopyrimidine], the IC50 worked out at 1.19 µM in experiment [1]; 5.17 µM in experiment [2]; 0.473 µM in experiment [3]; 0.094 µM in experiment [4]; 0.119 µM in experiment [5]; 0.945 µM in experiment [6]. Also, the IC50 in [7] is 1.31 µM; in [8], 0.993 µM; in experiment [9], 2.62 µM; in experiment [10] it was 1.01 µM; in experiment [11], 2.17 µM; in experiment [12], 0.034 µM.
For `CNc1nc(Nc2cnc(C#N)c(O[C@@H](C)CN(C)C)c2)ncc1-c1cnn(C)c1` [Compound 42, (S)-N^4-methyl-5-(1-methyl-1H-pyrazol-4-yl)-N^2-(2-cyano-3-(1-dimethylaminopropyl-2-oxy)pyridin-5-yl)-2,4-diaminopyrimidine], the IC50 was found to be 2.17 µM in experiment [1]; 0.227 µM in [3]; 0.137 µM in [4]; 0.218 µM in experiment [5]; 0.814 µM in experiment [6]; 4.19 µM in experiment [7]. Also, the half-maximal inhibitory concentration (IC50) in experiment [8] is 1.03 µM; in experiment [9] it was 5.74 µM; in experiment [11], over 10 µM; in experiment [12], 0.092 µM.
Consider `CNc1nc(Nc2cc(OC3CCNCC3)no2)ncc1-c1cnn(C)c1` [Compound 2, N^4-Methyl-5-(1-methyl-1H-pyrazol-4-yl)-N^2-(3-(piperidin-4-yloxy)isoxazol-5-yl)-2,4-diaminopyrimidine], for which the IC50 on Chk1 protein kinase (setting [13]) was over 10000 nM.
Turning to `CNc1nc(NC2CN=C(OC3CCNCC3)O2)ncc1-c1cnn(C)c1` (stereo not shown) [Compound 5, N^4-Methyl-5-(1-methyl-1H-pyrazol-4-yl)-N^2-(2-(piperidin-4-yloxy)-4,5-2H-oxazolin-5-yl)-2,4-diaminopyrimidine], the IC50 at Chk1 protein kinase (setting [13]) was over 10000 nM.
For the molecule `CNc1nc(Nc2cc(OC3CCNCC3)n(C)n2)ncc1-c1cnn(C)c1` [Compound 1, N^4-methyl-5-(1-methyl-1H-pyrazol-4-yl)-N^2-(1-methyl-5-(piperidin-4-yloxy)pyrazol-3-yl)-2,4-diaminopyrimidine], the IC50 on Chk1 protein kinase (setting [13]) was over 10000 nM.
